Test results taken from PubChem BioAssay (NCI).
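Method: 48-hour compound exposure of cells in 96-well plates, five concentrations, linear interpolation of endpoints. At the TGI there is no net growth.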

Columns and labels:
Test in all cases: inhibition of tumour cell growth, NCI panel, 48 h
HCT-116 colon = system: HCT-116 colon
OVCAR-3 ovarian = system: OVCAR-3 ovarian
SK-MEL-5 melanoma = system: SK-MEL-5 melanoma
NCI-H23 lung = system: NCI-H23 lung
SK-OV-3 ovarian = system: SK-OV-3 ovarian
KM12 colon = system: KM12 colon
HCC-2998 colon = system: HCC-2998 colon
NCI-H522 lung = system: NCI-H522 lung
CCRF-CEM leukemia = system: CCRF-CEM leukemia
SN12C renal = system: SN12C renal
MDA-MB-435 = system: MDA-MB-435
MCF7 breast = system: MCF7 breast
NCI-H460 lung = system: NCI-H460 lung
SF-295 CNS = system: SF-295 CNS
SK-MEL-28 melanoma = system: SK-MEL-28 melanoma
EKVX NSCLC = system: EKVX NSCLC
786-0 renal = system: 786-0 renal
MDA-MB-231 breast = system: MDA-MB-231 breast
HCT-15 colon = system: HCT-15 colon
SF-539 CNS = system: SF-539 CNS
UACC-257 melanoma = system: UACC-257 melanoma
SK-MEL-2 melanoma = system: SK-MEL-2 melanoma
HS 578T breast = system: HS 578T breast
HOP-62 NSCLC = system: HOP-62 NSCLC
MALME-3M melanoma = system: MALME-3M melanoma
M14 melanoma = system: M14 melanoma
CAKI-1 renal = system: CAKI-1 renal
NCI-H226 lung = system: NCI-H226 lung
TK-10 renal = system: TK-10 renal
RPMI-8226 leukemia = system: RPMI-8226 leukemia
K-562 leukemia = system: K-562 leukemia
SF-268 CNS = system: SF-268 CNS
UO-31 renal = system: UO-31 renal
OVCAR-8 ovarian = system: OVCAR-8 ovarian
NCI/ADR-RES ovarian = system: NCI/ADR-RES ovarian
OVCAR-5 ovarian = system: OVCAR-5 ovarian
MOLT-4 leukemia = system: MOLT-4 leukemia
ACHN renal = system: ACHN renal
SR leukemia = system: SR leukemia
U251 CNS = system: U251 CNS
IGROV1 ovarian = system: IGROV1 ovarian
OVCAR-4 ovarian = system: OVCAR-4 ovarian
SNB-19 CNS = system: SNB-19 CNS
SW-620 colon = system: SW-620 colon
HT29 colon = system: HT29 colon
MDA-N = system: MDA-N
COLO 205 colon = system: COLO 205 colon
A549 NSCLC = system: A549 NSCLC
LOX IMVI melanoma = system: LOX IMVI melanoma
T-47D breast = system: T-47D breast
BT-549 breast = system: BT-549 breast
PC-3 prostate = system: PC-3 prostate
UACC-62 melanoma = system: UACC-62 melanoma
A498 renal = system: A498 renal
DU-145 prostate = system: DU-145 prostate
HL-60(TB) leukemia = system: HL-60(TB) leukemia

CC1=CC(O)(c2ccccc2)C(N2CCOCC2)N1O (configuration not stated)
TGI (HCT-116 colon): > 100 µM
TGI (OVCAR-3 ovarian): > 100 µM
TGI (SK-MEL-5 melanoma): > 100 µM
TGI (NCI-H23 lung): > 100 µM
TGI (SK-OV-3 ovarian): > 100 µM
TGI (KM12 colon): > 100 µM
TGI (HCC-2998 colon): > 100 µM
TGI (NCI-H522 lung): > 100 µM
TGI (CCRF-CEM leukemia): > 100 µM
TGI (SN12C renal): > 100 µM
TGI (MDA-MB-435): > 100 µM
TGI (MCF7 breast): > 100 µM
TGI (NCI-H460 lung): > 100 µM
TGI (SF-295 CNS): > 100 µM
TGI (SK-MEL-28 melanoma): > 100 µM
TGI (EKVX NSCLC): > 100 µM
TGI (786-0 renal): > 100 µM
TGI (MDA-MB-231 breast): > 100 µM
TGI (HCT-15 colon): > 100 µM
TGI (SF-539 CNS): > 100 µM
TGI (UACC-257 melanoma): > 100 µM
TGI (SK-MEL-2 melanoma): > 100 µM
TGI (HS 578T breast): > 100 µM
TGI (HOP-62 NSCLC): > 100 µM
TGI (MALME-3M melanoma): > 100 µM
TGI (M14 melanoma): > 100 µM
TGI (CAKI-1 renal): > 100 µM
TGI (NCI-H226 lung): > 100 µM
TGI (TK-10 renal): > 100 µM
TGI (RPMI-8226 leukemia): > 100 µM
TGI (K-562 leukemia): > 100 µM
TGI (SF-268 CNS): > 100 µM
TGI (UO-31 renal): > 100 µM
TGI (OVCAR-8 ovarian): > 100 µM
TGI (NCI/ADR-RES ovarian): > 100 µM
TGI (OVCAR-5 ovarian): > 100 µM
TGI (MOLT-4 leukemia): > 100 µM
TGI (ACHN renal): > 100 µM
TGI (SR leukemia): > 100 µM
TGI (U251 CNS): > 100 µM
TGI (IGROV1 ovarian): > 100 µM
TGI (OVCAR-4 ovarian): > 100 µM
TGI (SNB-19 CNS): > 100 µM
TGI (SW-620 colon): > 100 µM
TGI (HT29 colon): > 100 µM
TGI (MDA-N): > 100 µM
TGI (COLO 205 colon): > 100 µM
TGI (A549 NSCLC): > 100 µM
TGI (LOX IMVI melanoma): > 100 µM
TGI (T-47D breast): > 100 µM
TGI (BT-549 breast): > 100 µM
TGI (PC-3 prostate): > 100 µM

CNC(=O)Oc1ccc(C(=S)Nc2ccc(Br)cc2)cc1
TGI (HCT-116 colon): 46.1 µM
TGI (OVCAR-3 ovarian): 49.4 µM
TGI (SK-MEL-5 melanoma): 34.9 µM
TGI (NCI-H23 lung): 38.3 µM
TGI (SK-OV-3 ovarian): > 100 µM
TGI (KM12 colon): 35.9 µM
TGI (HCC-2998 colon): 41.4 µM
TGI (NCI-H522 lung): 31.2 µM
TGI (CCRF-CEM leukemia): 18.3 µM
TGI (MDA-MB-435): 63.9 µM
TGI (MCF7 breast): 83.4 µM
TGI (SK-MEL-28 melanoma): 62.7 µM
TGI (EKVX NSCLC): 42 µM
TGI (786-0 renal): 60.5 µM
TGI (UACC-62 melanoma): 30.1 µM
TGI (HCT-15 colon): 43.1 µM
TGI (SF-539 CNS): 47.2 µM
TGI (UACC-257 melanoma): > 100 µM
TGI (SK-MEL-2 melanoma): 46 µM
TGI (HS 578T breast): > 100 µM
TGI (A498 renal): 53.3 µM
TGI (HOP-62 NSCLC): > 100 µM
TGI (MALME-3M melanoma): 98.8 µM
TGI (M14 melanoma): 46.4 µM
TGI (CAKI-1 renal): 51.3 µM
TGI (RPMI-8226 leukemia): > 100 µM
TGI (K-562 leukemia): 76.1 µM
TGI (DU-145 prostate): 81 µM
TGI (SF-268 CNS): > 100 µM
TGI (UO-31 renal): 60 µM
TGI (OVCAR-8 ovarian): 22.4 µM
TGI (NCI/ADR-RES ovarian): 54.7 µM
TGI (OVCAR-5 ovarian): 77.4 µM
TGI (MOLT-4 leukemia): 40.4 µM
TGI (ACHN renal): > 100 µM
TGI (SR leukemia): 46.1 µM
TGI (U251 CNS): 74.8 µM
TGI (IGROV1 ovarian): 18.7 µM
TGI (OVCAR-4 ovarian): 77.1 µM
TGI (SNB-19 CNS): > 100 µM
TGI (SW-620 colon): > 100 µM
TGI (HT29 colon): 44.8 µM
TGI (MDA-N): 57.3 µM
TGI (COLO 205 colon): 39.2 µM
TGI (A549 NSCLC): > 100 µM
TGI (HL-60(TB) leukemia): 24.8 µM
TGI (LOX IMVI melanoma): 27 µM
TGI (T-47D breast): 80.2 µM
TGI (BT-549 breast): 44.2 µM
TGI (PC-3 prostate): 83.3 µM
